Laboratory results reported in the Deep4Chem optical property database.
Several values for one entry are separate records, joined by “and”; a condition that tells them apart may be missing. Equal entries are not always repeated. Each block holds one molecule with its values, some of them ahead of it.

Experiment: solvent given as SMILES
[1] = in O=P(c1ccccc1)(c1ccccc1)c1ccccc1Oc1ccccc1P(=O)(c1ccccc1)c1ccccc1

SMILES: CC(C)(C)c1ccc(N(c2ccc(C(C)(C)C)cc2)c2cc(N(c3ccc(C(C)(C)C)cc3)c3ccc(C(C)(C)C)cc3)c3ccc4cc(C(C)(C)C)cc5ccc2c3c54)cc1
- emission maximum (in ClCCl): 491 nm

SMILES: CCCCCCCCCc1csc2cc(-c3cc(-c4cc5scc(CCCCCCCCC)c5s4)c4ccc5c(-c6cc7scc(CCCCCCCCC)c7s6)cc(-c6cc7scc(CCCCCCCCC)c7s6)c6ccc3c4c65)sc12
- emission maximum (in ClC(Cl)Cl): 490 nm

SMILES: Cc1cc(-c2nc(-c3ccccc3)nc(-c3ccccc3)n2)ccc1N1c2ccccc2[Si](c2ccccc2)(c2ccccc2)c2ccccc21
- emission maximum (in Cc1ccccc1): 459 nm
- emission maximum [1]: 460 nm

SMILES: CCN(CC)c1ccc(-c2nc3c(c4c2-c2ccc(C#N)cc2CC4)-c2ccc(C#N)cc2CC3)cc1
- emission maximum (in C1CCOC1): 499 nm
- emission maximum (in CC#N): 525 nm
- emission maximum (in CCCCCC): 455 nm
- emission maximum (in CCOC(C)=O): 494 nm
- emission maximum (in CO): 525 nm
- emission maximum (in CS(C)=O): 541 nm
- emission maximum (in Cc1ccccc1): 474 nm
- emission maximum (in ClCCl): 493 nm

SMILES: CN(C)c1ccc(-c2cc(=O)c3ccccc3o2)cc1
- emission maximum (in C1CCCCC1): 382.35 nm
- emission maximum (in CC#N): 474 nm and 462.75 nm
- emission maximum (in CCOC(C)=O): 442 nm and 433.73 nm
- emission maximum (in Cc1ccccc1): 417 nm

SMILES: Cc1cn2cc(-c3ccc([N+](=O)[O-])cc3)[n-][n+]2c1
- emission maximum (in ClCCl): 575 nm

SMILES: COc1ccc(-c2cc3c(ccc(=O)n3C)s2)cc1
- emission maximum (in CC#N): 424 nm
- emission maximum (in ClCCl): 426 nm

SMILES: CC(C)[Si](C#Cc1c2nsnc2c(C#C[Si](C(C)C)(C(C)C)C(C)C)c2nc3c(ccc4cc5ccccc5cc43)nc12)(C(C)C)C(C)C
- emission maximum (in CCCCCC): 605 nm

SMILES: c1ccc2c(c1)-c1ccccc1C21c2ccccc2N(c2ccc(-c3nc([C@]45CC6CC(C[C@@H](C6)C4)C5)nc([C@]45C[C@H]6C[C@@H](C[C@H](C6)C4)C5)n3)cc2)c2ccccc21
- emission maximum (in CC(C)(C)c1ccc(-n2c3ccc([Si](c4ccccc4)(c4ccccc4)c4ccccc4)cc3c3cc([Si](c4ccccc4)(c4ccccc4)c4ccccc4)ccc32)cc1): 448.69 nm
- emission maximum (in Cc1ccccc1): 454.71 nm

SMILES: C(=C/c1ccc(N(c2ccccc2)c2ccccc2)cc1)/c1ccc(N(c2ccccc2)c2ccccc2)cc1
- emission maximum (in ClCCl): 441 nm

SMILES: CCCCCCCCn1c2cc(/C=C/c3ccc(N(c4ccccc4)c4ccccc4)cc3)ccc2c2cc3c(cc21)c1ccc(/C=C/c2ccc(N(c4ccccc4)c4ccccc4)cc2)cc1n3CCCCCCCC
- emission maximum (in Cc1ccccc1): 473 nm

SMILES: Cc1nnc(-c2cc(-c3nnc(C)o3)c(-n3c4ccccc4c4ccccc43)cc2-n2c3ccccc3c3ccccc32)o1
- emission maximum (in Cc1ccccc1): 444 nm
- emission maximum [1]: 448 nm

SMILES: CCOC(=O)COc1ccc(/C=C/c2c(CC)c(C)c3n2[B-](F)(F)[N+]2=C(c4[nH]c(C)c(CC)c4C)c4ccccc4C2=C3C)cc1
- emission maximum (in C1CCOC1): 709 nm
- emission maximum (in CC#N): 707 nm
- emission maximum (in CCCCCC): 698 nm
- emission maximum (in CO): 711 nm
- emission maximum (in Cc1ccccc1): 709 nm
- emission maximum (in ClCCl): 714 nm

SMILES: c1ccc(N(c2ccccc2)c2ccc(-c3ccc4c(c3)C3(c5cc(-c6ccc(N(c7ccccc7)c7ccccc7)cc6)ccc5O4)c4ccccc4-c4ccccc43)cc2)cc1
- emission maximum (in ClCCl): 419 nm
- emission maximum (in c1cc(-n2c3ccccc3c3ccccc32)cc(-n2c3ccccc3c3ccccc32)c1): 407 nm

SMILES: CCC(C)(C)c1ccc(-c2ccc3c(c2)C(CCOC)(CCOC)c2cc(C(C)(C)CC)ccc2-3)cc1
- emission maximum (in C1CCCCC1): 360 nm

SMILES: CCCCN1c2ccccc2Sc2cc(/C=C/C3=Nc4ccc5ccccc5c4C3(C)C)ccc21
- emission maximum (in C1CCCCC1): 517 nm
- emission maximum (in C1CCOC1): 571 nm
- emission maximum (in C1COCCO1): 562 nm
- emission maximum (in CC#N): 610 nm
- emission maximum (in CC(C)=O): 598 nm
- emission maximum (in CC(C)O): 602 nm
- emission maximum (in CCOC(C)=O): 564 nm
- emission maximum (in CCOCC): 546 nm
- emission maximum (in CO): 635 nm
- emission maximum (in CS(C)=O): 612 nm
- emission maximum (in Cc1ccccc1): 550 nm
- emission maximum (in ClCCl): 595 nm

SMILES: c1ccc(-c2cc(-c3nnc(-c4ccc(N5c6ccccc6Oc6ccccc65)cc4)o3)c(-c3ccccc3)c(-c3ccccc3)c2-c2ccccc2)cc1
- emission maximum (in Cc1ccccc1): 495 nm
- emission maximum (in c1ccc(-n2c(-c3c(-n4c5ccccc5c5ccccc54)cccc3-n3c4ccccc4c4ccccc43)nc3ccccc32)cc1): 495 nm

SMILES: CCCCCCn1c2cc(C=C(C#N)C#N)sc2c2sc3c(sc4c5sc(C=C(C#N)C#N)cc5n(CCCCCC)c43)c21
- emission maximum (in ClCCl): 620 nm

SMILES: CCCCCCOc1ccc(-c2cnc(-c3nnc(-c4ccc(OCCCCCC)cc4)o3)o2)cc1
- emission maximum (in C1CCCCC1): 370 nm
- emission maximum (in C1CCOC1): 386 nm
- emission maximum (in CC#N): 400 nm
- emission maximum (in CCO): 411 nm
- emission maximum (in CO): 419 nm
- emission maximum (in ClC(Cl)Cl): 390 nm

SMILES: CCn1c2ccc(S(=O)(=O)O)cc2c(=O)c2cc3c(cc21)c(=O)c1cc(S(=O)(=O)O)ccc1n3CCCCCC(=O)O
- emission maximum (in O): 559 nm

SMILES: c1ccc(-c2nc(-c3ccccc3)nc(-c3ccc(-n4c5ccccc5c5c4c4ccccc4n5-c4ccccc4)cc3)n2)cc1
- emission maximum (in Cc1ccccc1): 526 nm

SMILES: Cc1ccc2c(c1)c(C#N)c(C#N)c1cc(C)ccc12
- emission maximum (in ClC(Cl)Cl): 396 nm

SMILES: Cc1cc(C)c(C2=C3C=c4c(c5ccc(C(C)(C)C)cc5c5cc(C(C)(C)C)ccc45)=[N+]3[B-](F)(F)n3c2cc2c4ccc(C(C)(C)C)cc4c4cc(C(C)(C)C)ccc4c23)c(C)c1
- emission maximum (in C1CCCCC1): 707 nm
- emission maximum (in C1CCOC1): 711 nm
- emission maximum (in CC#N): 711 nm
- emission maximum (in Cc1ccccc1): 715 nm
- emission maximum (in ClCCl): 715 nm

SMILES: COc1ccc(-c2cc3c(s2)=CC2=C(C(F)(F)F)c4cc5sc(-c6ccc(OC)cc6)cc5n4[B-](F)(F)[N+]=32)cc1
- emission maximum (in C1CCOC1): 754 nm
- emission maximum (in ClC(Cl)Cl): 754 nm

SMILES: Oc1ccc2ccccc2c1C1Nc2cccc3cccc(c23)N1
- emission maximum (in CC#N): 540 nm
- emission maximum (in CO): 476 nm
- emission maximum (in CS(C)=O): 528 nm
- emission maximum (in Cc1ccccc1): 468 nm

SMILES: CC(C)[Si](C#Cc1ccc2c(C#C[Si](C(C)C)(C(C)C)C(C)C)cc3c4cc(C#C[Si](C(C)C)(C(C)C)C(C)C)ccc4c(C#C[Si](C(C)C)(C(C)C)C(C)C)cc3c2c1)(C(C)C)C(C)C
- emission maximum (in ClCCl): 408 nm

SMILES: N#Cc1cc(C#Cc2c(F)c(F)nc(F)c2F)c(C#Cc2c(F)c(F)nc(F)c2F)cc1C#N
- emission maximum (in CC#N): 370 nm

SMILES: CCCCCCC(CCCCCC)N1C(=O)c2cccc3c(-c4ccc([Si](C)(C)C)cc4)ccc(c23)C1=O
- emission maximum (in CCCCCC): 406.7 nm
- emission maximum (in CCCCCCCCCCCCCC): 407 nm
- emission maximum (in CCCCCCCCCCCO): 430.6 nm
- emission maximum (in CCCCO): 434.2 nm
- emission maximum (in CN(C)C=O): 432.7 nm
- emission maximum (in Cc1ccccc1): 416.7 nm
- emission maximum (in ClC(Cl)Cl): 425.4 nm

SMILES: CCCCN1\C(=C/C=C/C=C/C2=[N+](CCCC)c3ccc4ccccc4c3C2(C)C)C(C)(C)c2c1ccc1ccccc21
- emission maximum (in C1CCOC1): 710 nm
- emission maximum (in CC#N): 698 nm
- emission maximum (in CC(C)=O): 701 nm
- emission maximum (in CCO): 704 nm
- emission maximum (in CN(C)C=O): 705 nm
- emission maximum (in CO): 701 nm
- emission maximum (in CS(C)=O): 709 nm
- emission maximum (in ClCCl): 713 nm

SMILES: COc1ccc2c3c(c4ccc(OC)cc4c2c1)=[N+]1C(=C(c2c(C)cc(C)cc2C)c2cc4c5ccc(OC)cc5c5cc(OC)ccc5c4n2[B-]1(F)F)C=3
- emission maximum (in C1CCCCC1): 700 nm
- emission maximum (in C1CCOC1): 712 nm
- emission maximum (in CC#N): 712 nm
- emission maximum (in Cc1ccccc1): 712 nm
- emission maximum (in ClCCl): 711 nm

SMILES: COC(=O)/C(C#N)=c1/cc/c(=c2/cc/c(=C(\C#N)C(=O)OC)s2)s1
- emission maximum (in Cc1ccccc1): 601 nm

The remaining lines, values ahead:

- emission maximum (in ClC(Cl)Cl): 651 nm
SMILES: O=C1c2ccc3c4c(-c5ccccc5)cc5c6c(ccc(c7c(-c8ccccc8)cc(c2c37)C(=O)N1C1CCCCC1)c64)C(=O)N(C1CCCCC1)C5=O

- emission maximum (in ClCCl): 604 nm
SMILES: Cc1cc(C)c(C2=C3C=C(/C=C/C(=O)OCc4ccccc4)C=[N+]3[B-](F)(F)n3cc(/C=C/C(=O)OCc4ccccc4)cc32)c(C)c1

- emission maximum (in CCCCCCC): 471 nm
SMILES: c1ccc2cc3c(cc2c1)-c1cccc2cc4ccccc4c-3c12

- emission maximum (in CCO): 420 nm
- emission maximum (in ClCCl): 420 nm
SMILES: COCc1ncc(-c2c3ccccc3c(-c3cnc(COC)nc3)c3ccccc23)cn1

- emission maximum (in ClC(Cl)Cl): 437 nm
SMILES: C=C[Si](c1c2ccccc2cc2ccccc12)(c1c2ccccc2cc2ccccc12)c1c2ccccc2cc2ccccc12

- emission maximum (in CCCCCCC): 401 nm
SMILES: c1ccc2cc3c(cc2c1)-c1cccc2c1c-3cc1ccccc12

- emission maximum (in ClCCl): 369 nm
SMILES: CCCCCc1c(C)c2c3ccccc3[nH]c2c2ccccc12

- emission maximum (in CO): 414.5 nm
SMILES: O=C(O)c1ccc(-c2nc(-c3ccccc3)c(-c3ccccc3)[nH]2)cc1

- emission maximum (in C1CCOC1): 444 nm
- emission maximum (in CC#N): 450 nm
- emission maximum (in CO): 452 nm
- emission maximum (in ClCCl): 447 nm
SMILES: C(=C\c1nc2ccccc2[nH]1)/c1ccc(-c2nc3c4cccnc4c4ncccc4c3[nH]2)cc1

- emission maximum (in C1CCCCC1): 566 nm
- emission maximum (in CC1CCCCC1): 566.5 nm
- emission maximum (in CC#N): 593 nm
- emission maximum (in CCC(C)CC): 566 nm
- emission maximum (in CCCCCC): 566.2 nm
- emission maximum (in CCOC(C)=O): 585 nm
SMILES: CN(C)c1cccc2c1C(=O)c1ccccc1C2=O

- emission maximum (in CO): 392 nm
SMILES: COc1ccc(-c2nc(-c3ccccc3OC)[nH]c2-c2ccc(OC)cc2)cc1

- emission maximum (in C1CCOC1): 455.01 nm
- emission maximum (in CC#N): 483.88 nm
- emission maximum (in CCCCCC): 415 nm
SMILES: CC(C)(C)c1cc2ccc3cc(C(C)(C)C)cc4c(N(c5ccccc5)c5ccccc5)cc(c1)c2c34

- emission maximum (in ClCCl): 441 nm
SMILES: CC(C)(C)NC(=O)c1ccc(-c2cc3ccccc3o2)c2ccc3c4ccccc4c4ccccc4c3c12

- emission maximum (in CC1CCCO1): 333 nm
SMILES: c1ccc2c(c1)-c1ccccc1C21c2ccccc2-c2ncccc21

- emission maximum (in CCO): 678 nm
- emission maximum (in CO): 676 nm
- emission maximum (in CS(C)=O): 668 nm
- emission maximum (in O): 659 nm
SMILES: CN1/C(=C/C=C(/C=C/c2sc3ccccc3[n+]2C)c2ccc(C(F)(F)F)cc2)Sc2ccccc21

- emission maximum (in ClCCl): 456 nm
SMILES: F[B-]12OC(c3ccccc3)=Nc3cccc([n+]31)N=C(c1ccccc1)O2

- emission maximum (in ClCCl): 400 nm
SMILES: CCOC(=O)c1c(-c2cc3ccccc3oc2=O)nn(-c2ccc(Br)cc2)c1C(=O)OCC

- emission maximum (in ClCCl): 525 nm
SMILES: c1ccc(-c2c3ccccc3nc3cc4ccccc4cc23)cc1
